Where “and” joins values, the source holds several entries; their conditions need not be identical. Identical values can stand only once.

This assay has as its system DIO mice. The assay can be described thus: Acute i.p. glucose tolerance test in DIO mice 6 h after a single s.c. dose (Fig. 3). On the set-up: AOC: unit not given here. The note with it: for AOC: AOC of i.p. GTT, DIO mice, 6 h after single s.c. dose, individual animals. It is filed as in vivo, mouse. How it is done: Glp1r^−/− mice were kindly provided by D. Drucker (University of Toronto, Canada). All wildtype and knockout mice used in our studies were in-house bred on a C57BL/6J background. Mice were double-housed and kept in a constant environment with the ambient temperature set to 22 ± 2 °C with constant humidity (45–65%) and a 12 h/12 h light/dark cycle with lights off from 06:00 until 18:00. For studies in DIO mice, male C57BL/6J mice were fed with a high-fat diet comprising 58% kilocalories from fat (D12331, Research Diets). db/db mice were fed with a normal chow diet (T1314, Altromin GmbH) throughout the study. At the beginning of each experiment, mice were equally distributed into experimental groups according to their body weight and body composition. All animal studies were approved by the State of Bavaria, Germany, or the Insitutional Animal Care and Use Committee of the University of Cincinnati, OH, USA and conducted on the basis of the underlying animal welfare law of the respective countries. Compounds were dissolved in PBS and were s.c. administered with a volume of 5 μl g^−1 body weight in the indicated doses between 15:00 and 16:00.
Glucose tolerance was assessed in 6 h fasted mice after i.p injection of 1.75 g glucose per kg body weight (DIO mice). Insulin tolerance was assessed in 6 h fasted mice after i.p. injection of either 0.75 U Insulin per […] body weight (DIO mice) or 1 U Insulin per […] body weight (db/db mice) (Humalog, Eli Lilly). Tail vein blood glucose was subsequently measured using a handheld glucometer (TheraSense Freestyle) at baseline and after 15, 30, 60 and 120 min.

As to `CCO[C@@H](Cc1ccc(OCCc2ccc(OS(C)(=O)=O)cc2)cc1)C(=O)O` [tesaglitazar, (S)-2-ethoxy-3-(4-(4-((methylsulfonyl)oxy)phenethoxy)phenyl) propanoic acid], the AOC is, setting by setting: (10 nmol/kg) 602.5 and 1138 and 938 and 739 and 687.5 and 514.5 and 579.5 and 713.5; (100 nmol/kg) 808 and 562 and 500.5 and 764.5 and 734.5 and 596.5 and 539.5 and 745.5. The i.p. glucose tolerance result (weight-matched DIO mice, single bolus 10 and 100 nmol kg−1, GTT 6 h after dose, Fig. 3a,b, in words) was “acutely worsened i.p. glucose tolerance”.

These data come from PMC9398908, “GLP-1-mediated delivery of tesaglitazar improves obesity and glucose metabolism in male mice” (Nature Metabolism, 2022).
